Where two headings read alike, the source gives them in different places.
How the values were obtained:
[1] = tested on: HIV-1 LTR-III G-quadruplex (FAM/TAMRA-labeled LTR-III); assay: FRET melting assay, LTR-III G4; assay type: binding; settings: for LTR-III (average): Table S12, average stabilization; for LTR III stabilization: Figure 7, stabilization group
Method in brief: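 Melting is followed by FAM fluorescence (ex 495/em 520 nm) while heating at 1 °C/min from 30 to 95 °C. Labelled ODN at 0.5 μM, pre-annealed in 10 mM Li cacodylate, 100 mM KCl, pH 7.4, mixed with ligand at 50:1 (25 μM), or 20:1 and 2:1 for titration. ΔTm is relative to the 0.25% DMSO buffer control.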

Cytotoxicity test = assay type: cell-based; settings: human, Figure 7
Description: (§1) Green monkey kidney (Vero, Beach, FL, USA) cell line was maintained in 2 × Eagle MEM (“Chumakov FSC R&D IBP RAS”, Russia) with 5% FBS with L-glutamine, penicillin and streptomycin. […] HIV-1 strain NL4-3 was obtained via cell transfection with pNL4-3 3 (ARP2006, NIBSC, Potters Bar, UK).
(§2) MT4 cell suspensions were added to the wells with compound dilutions and DMSO control (approx. 2 × 10^4 cells per well). […] All experimental procedures were performed in two replicates and were repeated two to four times. Mean and SD were calculated with OriginPro 8 (OriginLab, St. Louis, MO, USA).

MT4 cells = assay: Cytotoxicity test; assay type: cell-based; settings: for СС50 (MT4): Table S12, nine days
Description: as §1, §2

[2] = tested on: Pu39 G4 (G-rich region of the P1 promoter of BCL-2); assay: FRET melting assay, Pu39; assay type: binding, human; settings: 50:1
Description: (§3) To evaluate stabilizing properties of the ligands in a complex with oligodeoxyribonucleotides (ODNs) melting with fluorescence registration was used. ODN (0.5 μM) (Table 1), labeled with 6-carboxyfluorescein (FAM) and 6-carboxytetramethylrhodamine (TAMRA) at the 5′- and 3′-end, respectively, were folded in lithium cacodylate buffer (10 mM, pH 7.4) with 100 mM KCl by heating at 95 °C for 5 min and gradually cooling to r.t. GFP chromophore analogs (5 mM solution in DMSO) were diluted with the same buffer to the final concentration of 25 μM and mixed with an equal volume of 0.5 μM ODN solution resulting in a molar ratio of 50:1 (total volume was 50 μL). For the titration experiments molar ratios of 20:1 and 2:1 were used. Samples were analyzed using DTprime qPCR system (DNA-Technology LLC, Moscow, Russia). Fluorescence was registered by detection of FAM emission at 520 nm upon excitation at 495 nm in the temperature range of 30–95 °C with 1 °C/min gradient. Tm was determined using the instrument software and ΔTm was calculated relative to ODN Tm in a buffer solution containing 0.25% (v/v) DMSO. The primary and secondary screening were carried out in singlicate and triplicate, respectively.
(§4) Initially we screened an in-house library of 440 synthetic GFP chromophore analogues for interaction with HIV-1 LTR-III sequence, which modulates HIV-1 promoter activity, using high-throughput screening (HTS) FRET melting assay (Table S1). […] We selected 11 compounds (Figure 2A), displaying stabilization in the range of 2.4–7.8 °C, and evaluated their ability to stabilize other G4-forming sequences, including human telomeric sequence Telo (one of the most common G4 structures in the human genome, having two conformations, Hybrid-1 and Hybrid-2 [36]) and model G4 […] (the G-rich Pu39 region of the P1 promoter of the oncogene BCL-2, an apoptosis regulator [37] with polymorphic conformational structure), as well as double stranded oligonucleotide (duplex) control sequence (Figure 2B, Table S2).

[3] = tested on: dsDNA (double stranded control sequence); assay: FRET melting assay, duplex control; assay type: binding; settings: 50:1
Description: as §3, §4

[4] = tested on: human telomeric sequence Telo G4; assay: FRET melting assay, Telo; assay type: binding; settings: 50:1
Description: as §3, §4

[5] = tested on: HIV-1 strain NL4-3 in MT4 cells; assay: Cytopathic effect inhibition test; assay type: cell-based; settings: HIV-1 NL4-3, MT4 cells
Description: Human T cell leukemia (MT4) cell line was maintained in RPMI-1640 (“Chumakov FSC R&D IBP RAS”, Moscow, Russia) with 10% of fetal bovine serum (FBS, Invitrogen, Waltham, MA, USA), L-glutamine and gentamicin. Green monkey kidney (Vero, Beach, FL, USA) cell line was maintained in 2 × Eagle MEM (“Chumakov FSC R&D IBP RAS”, Russia) with 5% FBS with L-glutamine, penicillin and streptomycin. Cell cultures were incubated in the present of 5% CO2 at 37 °C. HIV-1 strain NL4-3 was obtained via cell transfection with pNL4-3 3 (ARP2006, NIBSC, Potters Bar, UK).
Eight two-fold dilutions of stock solutions of the compounds in two replicates were prepared in RPMI-1640 (“Chumakov FSC R&D IBP RAS”, Russia). Compound dilutions were mixed with equal volumes of the virus suspension containing 100 CCID50 (50% tissue culture infectious dose). Control cells were treated with the same sequential concentrations of DMSO as in compound dilutions. Then, the MT4 cell suspension (approx. 2 × 10^4 cells per well) in RPMI-1640 containing 10% FBS (Invitrogen, South America) was added to experimental mixtures. A final concentration series started from 25 μM. Each experiment contained virus dose titration in the inoculate to assure the acceptable dose-range. After a nine-day incubation (5% CO2, at 37 °C), cytopathic effect (CPE) was visually accessed via microscope. EC50 values were calculated according to the Karber method. All experimental procedures were performed in two replicates and were repeated two to four times. Mean and SD were calculated with OriginPro 8 (OriginLab, St. Louis, MO, USA).

[6] = Table S2, primary screening lead compounds
[7] = Table S1 primary screening, ligand:ODN 50:1, singlicate
[8] = MT4 cells (human T cell leukemia)
[9] = Table S5, newly synthesized compounds
[10] = LTR-III G4/ligand molar ratio 1:20
[11] = LTR-III G4/ligand molar ratio 1:50
[12] = Table S3 primary screening of newly synthesized analogs, 50:1

| SMILES | LTR-III (average) [1] | СС50 (MT4) (MT4 cells) [µM] | ΔTm Pu39 [2, 6] [°C] | ΔTm Duplex [3, 6] [°C] | LTR-III ΔTm [1, 7] [°C] | CC50 at 9 days (Cytotoxicity test; [8]) [µM] | ΔTm Telo [4, 6] [°C] | LTR III stabilization [1] [°C] | also measured |
| --- | --- | --- | --- | --- | --- | --- | --- | --- | --- |
| COc1cc(/C=C2N=C(/C=C/c3cc(Br)c(O)c(Br)c3)N(CCN)C\2=O)cc(OC)c1O.Cl [AR559] | 1,2 °C | > 25 |  |  |  |  |  |  | CC50 at 9 days (Cytotoxicity test; MT4 cells): > 25 µM |
| COc1ccc(/C=C2\N=C(CC(C)C)C(=O)N(O)C2=O)cc1 [M 813] | 1,65 °C | 0.46 ± 0.16 | -1.5±1 | 0±0.04 | 2.9 | 0.5 ± 0.2 | -0.6±0.9 |  |  |
| CN1C(=O)/C(=C/c2cc[n+](C)cc2)N=C1c1ccccc1 [M 903.2] | 2,3 °C | > 25 | -1±0.5 | 0.1±0.07 | 2.8 | > 25 | 0.4±0.1 |  |  |
| O=C1/C(=C/c2cccs2)N=C(/C=C/c2ccc(O)cc2)N1CCc1ccc(O)cc1 [MID 161] | -1,7 °C | 17.3 ± 5.7 |  |  | -2.6 | 17 ± 5 |  | < 1 | EC50 ([5]; Human immunodeficiency virus 1, NL43, 216 h, Table S12, CPE, nine-day incubation, read-out: EC50): 7.7 ± 2.2 µM; EC50 ([5]; Human immunodeficiency virus 1, NL43, Figure 7, read-out: Antiviral activity EC50 (HIV)): 8 ± 2 µM |
| COc1cc(/C=C2N=C(/C=C/c3cc(OC)c(O)c(OC)c3)N(C)C\2=O)cc(OC)c1O [N1193] | 14 °C | 2.3 ± 1.1 |  |  |  | 2 ± 1 |  | > 3 | ΔTm Pu39 [2, 9]: 3.8±0.04 °C; ΔTm Duplex [3, 9]: 0.6±0.1 °C; ΔTm, titration ([1]; LTR-III G4/ligand molar ratio 1:2): 2.4±0.6 °C; ΔTm, titration [1, 10]: 9.1±0.6 °C; ΔTm, titration [1, 11]: 13.1±0.2 °C; LTR-III ΔTm [1, 12]: 14 °C; ΔTm Telo [4, 9]: 9.5±0.1 °C |
| COc1cc(/C=C2N=C(/C=C/c3ccnc4ccccc34)N(C)C\2=O)cc(OC)c1O [N1196] |  | > 25 |  |  |  | > 25 |  | > 3 | ΔTm Pu39 [2, 9]: 7.2±0.4 °C; ΔTm Duplex [3, 9]: 0.5±0.1 °C; ΔTm, titration [1, 10]: 7.9±0.4 °C; ΔTm, titration [1, 11]: 11.3±0.3 °C; LTR-III ΔTm [1, 12]: 11.7 °C; ΔTm Telo [4, 9]: 8.7±0.2 °C |
| COc1c(O)ccc(/C=C2N=C(/C=C/c3ccnc4ccccc34)N(C)C\2=O)c1OC [N1197] | 11,3 °C | 1.66 ± 0.79 |  |  |  | 1.7 ± 0.8 |  | > 3 | ΔTm Pu39 [2, 9]: 7±0.7 °C; ΔTm Duplex [3, 9]: -0.4±0.2 °C; ΔTm, titration [1, 10]: 8.5±0.3 °C; ΔTm, titration [1, 11]: 11.4±0.2 °C; LTR-III ΔTm [1, 12]: 11.3 °C; ΔTm Telo [4, 9]: 4.6±0.2 °C |
| CCNc1ccc(/C=C2\N=C(C)N(C)C2=O)cc1 [N 683.1] | 3,1 °C | > 25 | 1.4±0.6 | 0±0.04 | 5 | > 25 | -0.1±0.04 | > 3 |  |
| COc1ccc(OC)c(/C=C2N=C(/C=C/c3ccncc3)N(C)C\2=O)c1 [N 848.2] | 3,2 °C | 6.4 ± 1.8 | 0.1±0.4 | 0.4±0.04 | 2.6 | 6 ± 2 | 2.1±0.01 | > 3 |  |
| COc1ccc(O)c(/C=C2N=C(/C=C/c3ccncc3)N(C)C\2=O)c1 [N 848.3] | 3,3 °C | 5.5 ± 2.2 | 0.7±0.3 | 0.1±0.09 | 2.9 | 6 ± 2 | 1.1±0.2 | > 3 |  |
| COc1cc(/C=C2N=C(/C=C/c3ccncc3)N(C)C\2=O)cc(OC)c1O [N 908] |  |  | -0.7±0.2 | 0±0.04 | 2.4 |  | 0.1±0.1 |  |  |
| COc1cc(/C=C2N=C(/C=C/c3cc(Cl)nc(Cl)c3)N(C)C\2=O)cc(OC)c1O [N 960a] | 5,2 °C | > 25 | 0.5±0.01 | -0.5±0.07 | 5.3 | > 25 | 1±0.7 | > 3 |  |
| COc1c(O)ccc(C=C2N=C(C=Cc3ccncc3)N(C)C2=O)c1O [N 1069] | 2,7 °C | 6.0 ± 2.0 |  |  | 2.7 |  |  |  | CC50 (MT4 cells; Figure 7): 6 ± 2 µM; EC50 ([5]; Figure 7, read-out: Antiviral activity EC50 (HIV)): 4 ± 2 µM; EC50 ([5]; Table S12, CPE, nine-day incubation, read-out: EC50): 4.23 ± 1.75 µM |
